Laboratory results from the supplement of paper PMC11208160.

experiment: recombinant barcode read abundance after kanamycin selection (control-corrected) (log10(CPM+1)); higher = more efficient recombination; sequences stand for … in AGTGCAGAGAAAATCGGCCAGTTTTCTCTGCCTGCAGTCCGCATGCCGT…AGATTTATGCAGCGGACTGCCTTTCTCCCAAAGTGATAAACCGGACAGTATCATGGACCGGTTTTCCCGGTAATCCGTATTTGCAAGGTTGGTTTCACT; site = the 11-nt target
Outline: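 Oligos holding a promoter, target, barcode and the J23119-driven first 104 bases of the bridge RNA were Gibson-cloned into a vector that supplied the other 73 bp plus a T7-inducible recombinase. This library was co-electroporated with a donor plasmid into E. coli. Two replicates went on chloramphenicol/ampicillin LB agar (control) and two on chloramphenicol/ampicillin/kanamycin with 0.1 mM IPTG. Recombination efficiency is read from averaged, control-corrected barcode counts per million at recombinant junctions, reported as log10(CPM+1).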
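Also: IS621 recombinase and bridge RNA in Escherichia coli cells.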

| Sequence | recombinant barcode read abundance (log10) |
| --- | --- |
| CTCTCATCTTGGGTTCTAACCTGTTGCTT (site CTCTCATCTAA) | 0.0308 |
| CTCTCATCTTGGGTTCTAACCTGTTGCTT (site CTCTCATCTAG) | 0.232 |
| CTCTCGCCTTGGGTTCTAACCTGTTGCCT (site CTATCGCCTAG) | 0 |
| CTCTCGCCTTGGGTTCTAACCTGTTGCCT (site CTCTCGCCTAG) | 0.168 |
| CTCTCGCCTTGGGTTCTAACCTGTTGCCT (site CTGTCGCCTAG) | 0.0587 |
| CTCTCGCCTTGGGTTCTAACCTGTTGCCT (site CTTTCGCCTAG) | 0.0266 |
| CTCTCGGCTTGGGTTCTAACCTGTTGCCT (site CTCTAGGCTAG) | 0.494 |
| CTCTCGGCTTGGGTTCTAACCTGTTGCCT (site CTCTCGGCTAG) | 0.865 |
| CTCTCGGCTTGGGTTCTAACCTGTTGCCT (site CTCTGGGCTAG) | 0.138 |
| CTCTCGGCTTGGGTTCTAACCTGTTGCCT (site CTCTTGGCTAG) | 0.0157 |
| CTCTGCTCTTGGGTTCTAACCTGTTGCTC (site CTCTGCTCTGA) | 0.724 |
| CTCTGCTCTTGGGTTCTAACCTGTTGCTC (site GCTGAGGCTTG) | 0 |
| CTCTGTCCTTGGGTTCTAACCTGTTGCTA (site CTCTGTCCTTA) | 0.346 |
| CTCTGTCCTTGGGTTCTAACCTGTTGCTA (site CTCTGTCCTTG) | 0.0487 |
| CTCTTAACTTGGGTTCTAACCTGTTGCTA (site CTCTTAACTTA) | 0.128 |
| CTCTTAACTTGGGTTCTAACCTGTTGCTA (site CTCTTAGCTTT) | 0.134 |
| CTCTTGACTTGGGTTCTAACCTGTTGCTT (site CTCTGGACTAA) | 0.0764 |
| CTCTTGACTTGGGTTCTAACCTGTTGCTT (site CTCTTGACTAA) | 0.871 |
| CTGAGCCCTTGGGTTCTAACCTGTTGCCG (site CTAAGCCCTCC) | 0.239 |
| CTGAGCCCTTGGGTTCTAACCTGTTGCCG (site CTGAGCCCTCG) | 1.08 |
| CTGAGGCCTTGGGTTCTAACCTGTTGCCT (site ATGAGGCCTAG) | 0.226 |
| CTGAGGCCTTGGGTTCTAACCTGTTGCCT (site CTGAGGCCTAG) | 0.497 |

| Sequence | recombinant barcode read abundance (log10) |
| --- | --- |
| CTGAGGCCTTGGGTTCTAACCTGTTGCCT (site GTGAGGCCTAG) | 0.11 |
| CTGAGGCCTTGGGTTCTAACCTGTTGCCT (site TTGAGGCCTAG) | 0.299 |
| CTGATAACTTGGGTTCTAACCTGTTGCCT (site CTGATAACTAG) | 1.02 |
| CTGATAACTTGGGTTCTAACCTGTTGCCT (site CTGATCACTAG) | 0.279 |
| CTGATAACTTGGGTTCTAACCTGTTGCCT (site CTGATGACTAG) | 0.0814 |
| CTGATAACTTGGGTTCTAACCTGTTGCCT (site CTGATTACTAG) | 0.136 |
| CTGCCCGCTTGGGTTCTAACCTGTTGCCT (site CTGCCCGCTAG) | 0.667 |
| CTGCCCGCTTGGGTTCTAACCTGTTGCCT (site GTGCTCGCTAG) | 0.366 |
| CTGCCCTCTTGGGTTCTAACCTGTTGCCT (site CAGCCCTCTAG) | 0.932 |
| CTGCCCTCTTGGGTTCTAACCTGTTGCCT (site CCGCCCTCTAG) | 0.179 |
| CTGCCCTCTTGGGTTCTAACCTGTTGCCT (site CGGCCCTCTAG) | 0.0113 |
| CTGCCCTCTTGGGTTCTAACCTGTTGCCT (site CTGCCCTCTAG) | 1.74 |
| CTGCGCTCTTGGGTTCTAACCTGTTGCAT (site CTGCGCTCTAT) | 1.22 |
| CTGCGCTCTTGGGTTCTAACCTGTTGCAT (site TGTGAGCCTTC) | 0.0268 |
| CTGCGGTCTTGGGTTCTAACCTGTTGCAT (site ATGCGGTCTAG) | 0.138 |
| CTGCGGTCTTGGGTTCTAACCTGTTGCAT (site CTGCGGTCTAT) | 1.7 |
| CTGCGTACTTGGGTTCTAACCTGTTGCCG (site CTGCGTACTCG) | 0.365 |
| CTGCGTACTTGGGTTCTAACCTGTTGCCG (site TCCAAGGCTTA) | 0.0663 |
| CTGCGTCCTTGGGTTCTAACCTGTTGCCT (site CTCCGTCCTAG) | 0.121 |
| CTGCGTCCTTGGGTTCTAACCTGTTGCCT (site CTGCGTCCTAG) | 0.671 |
| CTGGAAACTTGGGTTCTAACCTGTTGCCT (site CGGGTAACTAG) | 0.0164 |
| CTGGAAACTTGGGTTCTAACCTGTTGCCT (site CTGGAAACTAG) | 1.23 |

| Sequence | recombinant barcode read abundance (log10) |
| --- | --- |
| CTGGACACTTGGGTTCTAACCTGTTGCCT (site CTAGACACTAG) | 1.94 |
| CTGGACACTTGGGTTCTAACCTGTTGCCT (site CTCGACACTAG) | 0.0566 |
| CTGGACACTTGGGTTCTAACCTGTTGCCT (site CTGGACACTAG) | 1.83 |
| CTGGACACTTGGGTTCTAACCTGTTGCCT (site CTTGACACTAG) | 0.329 |
| CTGGGCACTTGGGTTCTAACCTGTTGCCT (site CGGGGCACTAG) | 0.164 |
| CTGGGCACTTGGGTTCTAACCTGTTGCCT (site CTGGGCACTAG) | 0.395 |
| CTGGGCCCTTGGGTTCTAACCTGTTGCCT (site CTGAGCCCTAG) | 0.12 |
| CTGGGCCCTTGGGTTCTAACCTGTTGCCT (site CTGCGCCCTAG) | 0.0544 |
| CTGGGCCCTTGGGTTCTAACCTGTTGCCT (site CTGGGCCCTAG) | 0.277 |
| CTGGGCCCTTGGGTTCTAACCTGTTGCCT (site CTGTGCCCTAG) | 0.214 |
| CTGGGTCCTTGGGTTCTAACCTGTTGCTT (site CTGGGTCCTAA) | 1.48 |
| CTGGGTCCTTGGGTTCTAACCTGTTGCTT (site CTTGGTTCTAA) | 0.179 |
| CTGGTTCCTTGGGTTCTAACCTGTTGCCT (site CTGGCTCCTAA) | 0.874 |
| CTGGTTCCTTGGGTTCTAACCTGTTGCCT (site CTGGTTCCTAG) | 1.2 |
| CTGTTGTCTTGGGTTCTAACCTGTTGCCA (site CTGATGTCTTG) | 0.204 |
| CTGTTGTCTTGGGTTCTAACCTGTTGCCA (site CTGCTGTCTTG) | 0.00714 |
| CTGTTGTCTTGGGTTCTAACCTGTTGCCA (site CTGGTGTCTTG) | 0.0643 |
| CTGTTGTCTTGGGTTCTAACCTGTTGCCA (site CTGTTGTCTTG) | 0.487 |
| CTTACAGCTTGGGTTCTAACCTGTTGCCT (site CTTACAGCTAG) | 0.644 |
| CTTACAGCTTGGGTTCTAACCTGTTGCCT (site CTTACCGCTAG) | 0.138 |
| CTTACAGCTTGGGTTCTAACCTGTTGCCT (site CTTACGGCTAG) | 0.0141 |
| CTTACAGCTTGGGTTCTAACCTGTTGCCT (site CTTACTGCTAG) | 0.147 |

| Sequence | recombinant barcode read abundance (log10) |
| --- | --- |
| CTTAGGACTTGGGTTCTAACCTGTTGCCA (site CTTAGGACTAG) | 0.257 |
| CTTAGGACTTGGGTTCTAACCTGTTGCCA (site CTTAGGACTCG) | 0.0285 |
| CTTAGGACTTGGGTTCTAACCTGTTGCCA (site CTTAGGACTGG) | 0.0906 |
| CTTAGGACTTGGGTTCTAACCTGTTGCCA (site CTTAGGACTTG) | 0.265 |
| CTTAGGACTTGGGTTCTAACCTGTTGCCG (site CTTAGGACTAG) | 0.235 |
| CTTAGGACTTGGGTTCTAACCTGTTGCCG (site CTTAGGACTCG) | 0.577 |
| CTTAGGACTTGGGTTCTAACCTGTTGCCG (site CTTAGGACTGG) | 0.155 |
| CTTAGGACTTGGGTTCTAACCTGTTGCCG (site CTTAGGACTTG) | 0.199 |
| CTTAGTACTTGGGTTCTAACCTGTTGCAT (site CTTAGTACTAT) | 0.246 |
| CTTAGTACTTGGGTTCTAACCTGTTGCAT (site GACGTGCCTCG) | 0.432 |
| CTTCAATCTTGGGTTCTAACCTGTTGCCT (site CTTAAATCTAG) | 0.146 |
| CTTCAATCTTGGGTTCTAACCTGTTGCCT (site CTTCAATCTAG) | 0.267 |
| CTTCAATCTTGGGTTCTAACCTGTTGCCT (site CTTGAATCTAG) | 0.35 |
| CTTCAATCTTGGGTTCTAACCTGTTGCCT (site CTTTAATCTAG) | 0.0762 |
| CTTCACCCTTGGGTTCTAACCTGTTGCCT (site CTTCAACCTAG) | 0.134 |
| CTTCACCCTTGGGTTCTAACCTGTTGCCT (site CTTCACCCTAG) | 1.76 |
| CTTCACCCTTGGGTTCTAACCTGTTGCCT (site CTTCAGCCTAG) | 0.117 |
| CTTCACCCTTGGGTTCTAACCTGTTGCCT (site CTTCATCCTAG) | 0.00728 |
| CTTCGAGCTTGGGTTCTAACCTGTTGCTG (site CTTCGAGCTCA) | 1.52 |
| CTTCGAGCTTGGGTTCTAACCTGTTGCTG (site CTTCGAGCTCC) | 0.193 |
